Like-named read-outs stand apart in the source and are kept apart here.
Key:
AKR1B10 [1] = target: T1, AKR1B10 (Homo sapiens, UniProt O60218); conditions: Stefek et al.; J. Med Chem. 58: 2649-57, 2015; cited from earlier work
[2] = Test A: Reduction of disulfide of formula I by GSH (cleavage kinetics to form cemtirestat of formula II, absorbance at 302 nm); assay type: physicochemical; conditions: mean ± SD, n=3; for Final degree of disulfide of formula I reduction: calculated after reaching the maximum in the 60th second, disulfide 50 µM, pH 7.4, 37 °C; for Initial rate of cemtirestat of formula II formation: disulfide of formula I 50 µM, 20 mM phosphate buffer (pH 7.4) at 37 °C
ALR2 = target: T2, ALR2 (Rattus norvegicus, UniProt P07943); test: Test B: Inhibition of ALR2 by disulfide of formula I in the presence of GSH (NADPH consumption at 340 nm); assay type: biochemical; conditions: disulfide of formula I 100 µM, 67 mM phosphate buffer (pH 7.4), 37 °C, measured 2 min after GSH addition
T2 construct: The ALR2 enzyme from rat lenses was isolated by the method of Hayman and Kinoshit; from tissue; host or cells: rat eye lenses
Protocol: Preparation ofALR2. The ALR2 enzyme from rat lenses was isolated by the method of Hayman and Kinoshit (J. Biol. Chem. 240: 877-882, 1965). The homogenate was centrifuged at 10,000 g at 0-4 °C for 20 min. The supernatant was precipitated with saturated ammonium sulfate solution gradually at 40 %, 50 % and finally at 75 % saturation. After the first two precipitations, the supernatant was used. The sediment from the last step, containing ALR2 activity, was resuspended in 75% ammonium sulfate and stored in smaller aliquots in a liquid nitrogen container.
Enzyme test. ALR2 activity was measured spectrophotometrically (Stefek et al.; Bioorg. Med Chem. 16: 4908-4920, 2008) by determining NADPH consumption at 340 nm and expressed as a decrease in optical density (O.D.) / s / mg protein. The reaction mixture contained 4.67 mM D,L-glyceraldehyde as substrate, 0.11 mM NADPH in 67 mM phosphate buffer (pH 7.4), GSH at the desired concentration and 0.05 ml of enzyme preparation a total volume of 1.5 ml. The reference (blank) sample contained all of the above components except D,L-glyceraldehyde substrate and was used to correct for NADPH oxidation unrelated to substrate reduction. Enzyme catalysis was initiated by the addition of D,L-glyceraldehyde and the reaction was monitored for 4 minutes after an initial 1 minute period at 37 °C. The enzyme activity was adjusted by diluting the enzyme preparations with distilled water so that 0.05 ml of the preparation gave an average reaction rate for the control samples in the range of 0.020 ± 0.005 absorbance units / min. The effect of inhibitor on enzyme activity was determined by adding a stock solution of inhibitor in DMSO to the reaction mixture at a final concentration of 100 µM so that the final DMSO concentration was 1%. An inhibitor with the same concentration was added to the reference sample. Enzyme activity was started 2 min after the addition of GSH to the reaction mixture by adding D,L-glyceraldehyde used as a substrate, and I(%) values were determined from the measured absorbance decrease values.

AKR1B10 [3] = target: T1, AKR1B10; test: Inhibition of aldo-keto reductase AKR1B10; assay type: biochemical; conditions: meaning of 'does not interact per se'
AKR1B1 = AKR1B1 (Homo sapiens, UniProt P15121); test: Inhibition of aldo-keto reductase AKR1B1; assay type: biochemical
[4] = Test C: Determination of the distribution ratio in the buffer/octan-1-ol system (shake-flask method); assay type: physicochemical; conditions: for D (distribution ratio in the buffer/octan-1-ol system): 100 µM, room temperature, mean ± SD, n=3
Protocol: The partition ratio in the buffer/1-octanol system (system name octan-1-ol), defined as the equilibrium ratio of the total solute concentration in the organic phase to the total solute concentration in the aqueous phase, was determined by the shake-flask method at room temperature. Octan-1-ol saturated with the desired buffer was used as the organic phase for the determination. […] The aqueous solution was shaken with octan-1-ol (20 mL) for 3 hours. Subsequently, the phases were separated in a separatory funnel and the concentration of the solute was determined spectrophotometrically in both phases by means of a calibration curve.

T1 sequence (O60218 whole entry, species assumed): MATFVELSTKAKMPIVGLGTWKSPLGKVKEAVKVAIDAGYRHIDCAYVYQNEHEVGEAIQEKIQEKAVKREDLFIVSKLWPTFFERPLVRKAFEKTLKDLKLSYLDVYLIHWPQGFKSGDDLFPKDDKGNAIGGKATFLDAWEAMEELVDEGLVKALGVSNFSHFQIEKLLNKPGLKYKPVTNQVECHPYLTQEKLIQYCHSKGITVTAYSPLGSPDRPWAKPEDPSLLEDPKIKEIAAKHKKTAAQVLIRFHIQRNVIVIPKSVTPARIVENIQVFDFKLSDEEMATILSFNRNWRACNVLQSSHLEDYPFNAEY

SMILES | IC50 (AKR1B10 [1]) | Final degree of disulfide of formula I reduction ([2]; GSH 25 µM) | Initial rate of cemtirestat of formula II formation ([2]; GSH 25 µM) | Final degree of disulfide of formula I reduction ([2]; GSH 50 µM) | Initial rate of cemtirestat of formula II formation ([2]; GSH 50 µM) | Final degree of disulfide of formula I reduction ([2]; GSH 100 µM) | Initial rate of cemtirestat of formula II formation ([2]; GSH 100 µM) | inhibition at 100 µM (ALR2; pH 7.4, GSH added 0 µM) | inhibition at 100 µM (ALR2; pH 7.4, GSH added 5 µM) | inhibition at 100 µM (ALR2; pH 7.4, GSH added 10 µM) | inhibition at 100 µM (ALR2; pH 7.4, GSH added 20 µM) | inhibition at 100 µM (ALR2; pH 7.4, GSH added 40 µM) | inhibition at 100 µM (ALR2; pH 7.4, GSH added 100 µM) | inhibition at 100 µM (ALR2; pH 7.4, GSH added 1000 µM) | inhibition at 100 µM (ALR2; pH 7.4, GSH added 5000 µM) | IC50 (AKR1B10 [3]) | IC50 (AKR1B1) | water/octanol distribution ratio compared to cemtirestat of formula II ([4]; acidic environment at pH 4.6, fold higher than cemtirestat of formula II) | D (distribution ratio in the buffer/octan-1-ol system) ([4]; pH 4.6, acetate buffer (0.1M) + 0.15 M KCl) | D (distribution ratio in the buffer/octan-1-ol system) ([4]; pH 7.4, phosphate buffer (0.1M) + 0.15 M KCl)
O=C(O)Cn1c2ccccc2c2nnc(S)nc21 [Cemtirestat of formula II, 2-(3-thioxo-2,3-dihydro-5H-[1,2,4]triazino[5,6-b]indol-5-yl)acetic acid] | 3.69 ± 0.53 µM | – | – | – | – | – | – | – | – | – | – | – | – | – | – | – | – | – | – | –
O=C(O)Cn1c2ccccc2c2nnc(SSc3nnc4c5ccccc5n(CC(=O)O)c4n3)nc21 [Disulfide of formula I, 2,2'-(disulfanediylbis(5H-[1,2,4]triazino[5,6-b]indole-3,5-diyl))diacetic acid] | – | 39.68 ± 1.59% | 4.46 ± 1.68 nmol/mL/s | 67.70 ± 3.72% | 7.30 ± 1.46 nmol/mL/s | 85.16 ± 5.11% | 9.83 ± 2.09 nmol/mL/s | < 1% | < 1% | 8.9 ± 0.6% | 12.4 ± 1.4% | 16.1 ± 6.9% | 72.6 ± 9.1% | 94 ± 1.6% | 91.1 ± 1.5% | > 100 µM | > 100 µM | ~4 fold | 0.1136 ± 0.0022 | 0.0095 ± 0.0019
